The source of these data is patent US8501713B2, “Drug combinations for the treatment of duchenne muscular dystrophy” (Summit Corporation PLC, priority 2007, dated 2013).

In the first assay the test system is Utrophin A promoter linked to a luciferase reporter gene. Kind of assay: Luciferase reporter assay (murine H2K cells). In kind it is cell-based. The note with it: Mus musculus, H2K mdx, luciferase level relative to control; H2K/mdx/Utro A reporter cells; compound 10 μM final concentration; read-out: Activity. The method in brief: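 Immortalized mdx mouse H2K myoblasts stably carrying a ~5 kb utrophin A promoter–luciferase construct, kept at 33° C, 10% CO2. After 24 hrs plating, compound added at 10 μM final for 48 hrs; luciferase light output read after in-situ lysis.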
In the case of `CC(=O)Nc1ccc(-c2nc3cc(Cl)ccc3o2)cc1` [Example 317, N-(4-(5-chlorobenzo[d]oxazol-2-yl)phenyl)acetamide], the activity at 10 µM is 301 to 400%.
Still for that read-out and setting: the result for `CS(=O)(=O)c1ccc2nc(-c3ccc(Cl)cc3)sc2c1` [Example 406, 2-(4-chlorophenyl)-6-(methylsulfonyl)benzo[d]thiazole] reads over 401%; that for `CC(=O)Nc1ccccc1-c1ccc2oc(-c3ccc(Cl)cc3)nc2c1` [Example 294, N-(2-(2-(4-chlorophenyl)benzo[d]oxazol-5-yl)phenyl)acetamide], under 200%.
Same read-out and setting: to `CCS(=O)(=O)c1ccc2oc(-c3ccc4sccc4c3)nc2c1` [Example 432, 2-(benzo[b]thiophen-5-yl)-5-(ethylsulfonyl)benzo[d]oxazole] belongs over 401%.
For the compound `CCCC(=O)Nc1ccc2oc(-c3ccccc3)nc2c1` [Example 10, N-(2-phenylbenzo[d]oxazol-5-yl)butyramide], the activity at 10 µM was in the range of 301 to 400%.
For `CC(C)C(=O)Nc1ccc2cc(-c3ccccc3)n(C)c2c1` [Example 389, N-(1-methyl-2-phenyl-1H-indol-6-yl)isobutyramide], the activity at 10 µM is under 200%.
Take `Clc1ccc(-c2nc3c(ccc4ccccc43)o2)cc1` [Example 409, 2-(4-chlorophenyl)naphtho[1,2-d]oxazole]: the activity at 10 µM is over 401%.
Consider `CCCC(=O)Nc1cnc2oc(-c3ccccc3)nc2c1` [Example 170, N-(2-phenyloxazolo[5,4-b]pyridin-6-yl)butyramide], for which the activity at 10 µM is under 200%.
On the same count and under the same terms, to `O=C(Nc1ccc(-c2nc3cc(Cl)ccc3o2)cc1)c1cccs1` [Example 319, N-(4-(5-chlorobenzo[d]oxazol-2-yl)phenyl)thiophene-2-carboxamide] belongs under 200%; to `CC(C)C(=O)Nc1ccc2[nH]c(-c3ccc(Cl)cc3)nc2c1` [Example 195, N-(2-(4-chlorophenyl)-1H-benzo[d]imidazol-5-yl)isobutyramide], 201 to 300%.
With `O=C(Nc1ccc2nc(-c3ccc(Cl)cc3)oc2c1)C1CC1` [Example 353, N-(2-(4-chlorophenyl)benzo[d]oxazol-6-yl)cyclopropanecarboxamide], the activity at 10 µM was 201 to 300%.
In the case of `Nc1cnc2oc(-c3ccccc3)nc2c1` [Example 169, 2-phenyloxazolo[5,4-b]pyridin-6-amine], the activity at 10 µM is under 200%.
Still for that read-out and setting: the result for `COc1ccccc1C(=O)Nc1ccc2oc(-c3cccnc3)nc2c1` [Example 43, 2-methoxy-N-(2-(pyridin-3-yl)benzo[d]oxazol-5-yl)benzamide] reads under 200%.
Turning to `CCCCc1ccc(-c2nc3ccc([N+](=O)[O-])cc3o2)nc1` [Example 262, 2-(5-butylpyridin-2-yl)-6-nitrobenzo[d]oxazole], the activity at 10 µM lay within 201 to 300%.
For the compound `CCCC(=O)Nc1ccc2oc(-c3ccc(Cl)cc3)nc2c1` [Example 99, N-(2-(4-chlorophenyl)benzo[d]oxazol-5-yl)butyramide], the activity at 10 µM is over 401%.
The same measure, in the same setting: the result for `CCN(CC)c1ccc(-c2nc3cc(NC(=O)c4cccs4)ccc3o2)cc1` [Example 79, N-(2-(4-(diethylamino)phenyl)benzo[d]oxazol-5-yl)thiophene-2-carboxamide] reads under 200%; that for `Cc1ccc(-c2nc3cc(NS(=O)(=O)C(C)C)ccc3o2)cc1` [Example 259, N-(2-p-tolylbenzo[d]oxazol-5-yl)propane-2-sulfonamide], under 200%; that for `CCN(CC)c1ccc(-c2nc3cc(C(C)(C)C)ccc3o2)cc1` [Example 142, 4-(5-tert-butylbenzo[d]oxazol-2-yl)-N,N-diethylaniline], 201 to 300%.
For `c1ccc(-c2nc3ccccc3o2)nc1` [Example 147, 2-(pyridin-2-yl)benzo[d]oxazole], the activity at 10 µM is under 200%.
Still for that read-out and setting: to `Cc1ccc(-c2nc3cccnc3o2)cc1` [Example 157, 2-p-tolyloxazolo[5,4-b]pyridine] belongs 301 to 400%.
Regarding `CC(C)C(=O)Nc1ccc(-c2nc3cc(Cl)ccc3o2)cc1` [Example 318, N-(4-(5-chlorobenzo[d]oxazol-2-yl)phenyl)isobutyramide], the activity at 10 µM is 201 to 300%.
`O=C(O)c1ccc2oc(-c3ccc4ccccc4c3)nc2c1` [Example 449, 2-(Naphthalen-2-yl)benzo[d]oxazole-5-carboxylic acid]: the activity at 10 µM was over 401%.
On the same count and under the same terms, to `O=[N+]([O-])c1cc2oc(-c3ccc(Cl)cc3)nc2cc1Cl` [Example 326, 5-chloro-2-(4-chlorophenyl)-6-nitrobenzo[d]oxazole] belongs 301 to 400%; to `CC(C)C(=O)Nc1ccc2oc(C3CCOCC3)nc2c1` [Example 349, N-(2-(tetrahydro-2H-pyran-4-yl)benzo[d]oxazol-5-yl)isobutyramide], under 200%.
On the same count and under the same terms, the result for `CC(C)N(C)C(=O)c1ccc2oc(-c3ccc(Cl)cc3)nc2c1` [Example 278, 2-(4-chlorophenyl)-N-isopropyl-N-methylbenzo[d]oxazole-5-carboxamide] reads 301 to 400%.
Same read-out and setting: the result for `COc1ccc(-c2nc3cc(NC(=O)C(C)C)ccc3o2)cc1` [Example 139, N-(2-(4-methoxyphenyl)benzo[d]oxazol-5-yl)isobutyramide] reads 201 to 300%.

The same assay, now with this note: luciferase level relative to control; H2K/mdx/Utro A reporter cells; compound 10 μM final concentration.
Turning to `O=C(O)c1cccc(-c2ccc3oc(-c4ccc(Cl)cc4)nc3c2)c1` [Example 313, 3-(2-(4-chlorophenyl)benzo[d]oxazol-5-yl)benzoic acidd], the Activity entry is “+ (Up to 200% relative to control)”.

The same assay, now with this note: luciferase reporter assay in murine H2K cells; classified relative to control.
Turning to `c1ccc(-c2nnc(SCc3nc4ccccc4[nH]3)o2)cc1` [Example 530], the Activity entry is on record as “+ (Up to 200% relative to control)”.
On to `c1cc(NCc2ccncc2)cc(-c2nc3ccccc3s2)c1` [Example 647], for which the Activity entry is “+++ (Between 301% and 400% relative to control)”.
The same measure, in the same setting: the result for `c1ccc2sc(-c3ccc4c(c3)OCO4)nc2c1` [Example 608] reads “++++ (Above 401% relative to control)”; that for `Nc1cccc(-c2nc3ccccc3s2)c1` [Example 602], “+++ (Between 301% and 400% relative to control)”.
Same read-out and setting: to `c1csc(-c2nc3cc4ccccc4cc3[nH]2)c1` [Example 561] belongs “+++ (Between 301% and 400% relative to control)”.
For `Cc1c(N)cccc1-c1nc2cc(Cl)ccc2o1` [Example 566], the Activity entry is on record as “+ (Up to 200% relative to control)”.
`COc1ccc(-c2nc3ccccc3s2)cc1` [Example 582]: the Activity result is recorded as “++++ (Above 401% relative to control)”.
Same read-out and setting: to `COc1ccc(CSc2nc3ccccc3[nH]2)cc1` [Example 640] belongs “+++ (Between 301% and 400% relative to control)”.
For the compound `Cc1ccc2[nH]c(-c3ccc(NC(=O)c4ccco4)cc3)nc2c1` [Example 580], the Activity entry is “+++ (Between 301% and 400% relative to control)”.
Still for that read-out and setting: the result for `CCS(=O)(=O)c1ccc2ocnc2c1` [Example 573] reads “+ (Up to 200% relative to control)”; that for `O=[N+]([O-])c1ccc2oc(-c3ccc(F)cc3)nc2c1` [Example 525], “+ (Up to 200% relative to control)”.
Still for that read-out and setting: the result for `CCNC(=O)Nc1ccc2[nH]c(C(C)(C)C)cc2c1` [Example 576] reads “+ (Up to 200% relative to control)”.
Still for that read-out and setting: the result for `O=C(Nc1ccccc1-c1nc2ccccc2[nH]1)c1ccc(Cl)cc1Cl` [Example 500] reads “+ (Up to 200% relative to control)”.
